The values below come from patent publication US11214803B2, “Modulators of YAP1 expression” (Ionis Pharmaceuticals, Inc., priority 2019, dated 2022).

Strand notation (5' to 3'): a small letter for the sugar, then the base; units joined by * are phosphorothioate-linked, units joined directly phosphodiester-linked; [ ] holds rarer units or linkages, { } end groups; capitals alone tell only the bases. e = 2'-O-(2-methoxyethyl) (MOE); k = constrained ethyl (cEt); [5mC] = 5-methylcytosine; d = 2'-deoxy (DNA); m = 2'-O-methyl

The first data set relates to Yap1 mRNA. Nature of the data set: Antisense inhibition of human Yap1 in SNU-449 cells by modified oligonucleotides, single dose (Example 5, RTS36584). It counts as cell-based. Particulars: Table 39; SNU-449 cells, 10,000 cells per well, free uptake, 2,000 nM oligonucleotide, approx. 48 hours; RTS36584; normalized to RIBOGREEN; Yap1 mRNA relative to untreated control. The method, boiled down:
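Values are % of untreated control: Yap1 mRNA by quantitative RT-PCR (RTS36584), normalized to RIBOGREEN total RNA. Oligonucleotides were dosed at 2,000 nM, free uptake, in SNU-449 cells, with roughly 48 h exposure before RNA isolation.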
Take “1198398 (kG*d[5mC]*dA*dC*dT*dT*dT*dT*dA*d[5mC]*dA*kT*eT*kA*eG*kG) [Compound 1198398]”: the “YAP1 (% UTC)” value amounted to 18 % UTC.

Still in this data set, the particulars now being: Table 40 (separate experiment); SNU-449 cells, 10,000 cells per well, free uptake, 2,000 nM oligonucleotide, approx. 48 hours; RTS36584; normalized to RIBOGREEN; Yap1 mRNA relative to untreated control.
As for “1198757 (kA*eG*kT*dG*d[5mC]*dT*dT*dT*dG*dG*dA*dA*eG*eA*kT*k[5mC]; antisense) [Compound 1198757]”, the “YAP1 (% UTC)” value is 4 % UTC.

On to “1198797 (antisense kA*eA*kG*dT*dA*dA*dG*dG*dT*dT*dT*d[5mC]*e[5mC]*e[5mC]*kA*kG) [Compound 1198797]”, for which the “YAP1 (% UTC)” value is 31 % UTC.

For “1198426 (kA*dA*d[5mC]*dT*d[5mC]*dT*dT*dA*dT*dA*dT*kG*eG*kT*eT*kT; antisense) [Compound 1198426]”, the “YAP1 (% UTC)” value is recorded as 111 % UTC.

As to “1198732 (kT*eA*kT*dA*dA*d[5mC]*dT*dG*dG*dG*d[5mC]*dA*eA*eA*kT*kT; antisense) [Compound 1198732]”, the “YAP1 (% UTC)” value is listed as 86 % UTC.

The data set is the same for the next values; noted with them: Table 41; SNU-449 cells, 10,000 cells per well, free uptake, 2,000 nM modified oligonucleotide, approximately 48 hours; RTS36584; normalized to RIBOGREEN; Yap1 mRNA relative to untreated control cells.
On to “1198658 (kA*kA*dG*d[5mC]*dA*d[5mC]*dT*dT*dT*dT*dA*d[5mC]*kA*eT*kT*eA; antisense) [Compound 1198658]”, for which the “YAP1 (% UTC)” value is on record as 62 % UTC.

As to “1198672 (antisense kA*kT*dT*dT*dA*dG*dG*dA*dT*dG*d[5mC]*dA*kT*eG*kG*eT) [Compound 1198672]”, the “YAP1 (% UTC)” value was found to be 41 % UTC.

As for “1198659 (antisense kT*kT*dA*dA*dG*d[5mC]*dA*d[5mC]*dT*dT*dT*dT*kA*e[5mC]*kA*eT) [Compound 1198659]”, the “YAP1 (% UTC)” value came to 58 % UTC.

Take “1198735 (kG*eA*kG*dG*dT*dA*dT*dA*dA*d[5mC]*dT*dG*eG*eG*k[5mC]*kA; antisense) [Compound 1198735]”: the “YAP1 (% UTC)” value is on record as 34 % UTC.

The data set is the same for the next values; noted with them: Table 43 experiment; SNU-449 cells, 10,000 cells per well, free uptake, 2,000 nM, approximately 48 hours; RTS36584; Yap1 mRNA normalized to RIBOGREEN, relative to untreated control cells.
On to “1198463 (antisense kA*kT*dG*dG*dA*dA*dA*dT*dT*dG*dT*e[5mC]*kT*e[5mC]*kA*eT) [Compound 1198463]”, for which the “YAP1 (% UTC)” value is recorded as 59 % UTC.

With “1198458 (kA*kA*dT*dT*dG*dT*d[5mC]*dT*d[5mC]*dA*dT*eG*k[5mC]*e[5mC]*kT*eT) [Compound 1198458]”, the “YAP1 (% UTC)” value stood at 30 % UTC.

Turning to “1198456 (kT*kG*dT*d[5mC]*dT*d[5mC]*dA*dT*dG*d[5mC]*d[5mC]*eT*kT*eA*kT*eA) [Compound 1198456]”, the “YAP1 (% UTC)” value is recorded as 21 % UTC.

The same data set, now with this note: Table 44 experiment; SNU-449 cells, 10,000 cells per well, free uptake, 2,000 nM, approximately 48 hours; RTS36584; Yap1 mRNA normalized to RIBOGREEN, relative to untreated control cells.
“1198500 (kA*kT*dT*dT*dA*dG*dG*dA*dT*dG*d[5mC]*eA*kT*eG*kG*eT; antisense) [Compound 1198500]”: the “YAP1 (% UTC)” value turned out to be 17 % UTC.

Take “1198486 (antisense kA*kA*dG*d[5mC]*dA*d[5mC]*dT*dT*dT*dT*dA*e[5mC]*kA*eT*kT*eA) [Compound 1198486]”: the “YAP1 (% UTC)” value is 39 % UTC.

On to “1198513 (k[5mC]*kA*dA*d[5mC]*dT*d[5mC]*dT*dT*dA*dT*dA*eT*kG*eG*kT*eT; antisense) [Compound 1198513]”, for which the “YAP1 (% UTC)” value is listed as 63 % UTC.

With “1198477 (antisense kG*kA*dG*dG*dT*dA*dT*dA*dA*d[5mC]*dT*eG*kG*eG*k[5mC]*eA) [Compound 1198477]”, the “YAP1 (% UTC)” value is recorded as 47 % UTC.

Regarding “1198505 (kA*kT*dT*d[5mC]*dA*dG*dA*dT*dT*dT*dA*eG*kG*eA*kT*eG; antisense) [Compound 1198505]”, the “YAP1 (% UTC)” value is recorded as 73 % UTC.

Turning to “1198904 (kT*kA*dT*dT*dA*dG*dA*dG*dT*dA*dT*kG*dT*kG*dG*k[5mC]; antisense) [Compound 1198904]”, the “YAP1 (% UTC)” value was 12 % UTC.

Staying with this data set, now noted: Table 45; Yap1 mRNA as percent of untreated control, SNU-449 cells, single dose.
As for “1198942 (k[5mC]*kT*dT*dA*dT*dA*dT*dG*dG*dT*dT*kT*dT*kG*dT*kG; antisense) [Compound 1198942]”, the “YAP1 (% UTC)” value stood at 42 % UTC.

The data set is the same for the next values; noted with them: Table 46; Yap1 mRNA as percent of untreated control, SNU-449 cells, single dose.
“1198833 (kA*kG*d[5mC]*dA*d[5mC]*dT*dT*dT*dT*dA*d[5mC]*kA*eT*kT*eA*kG; antisense) [Compound 1198833]”: the “YAP1 (% UT)” value was found to be 54 % UT.

Take “1198810 (antisense kT*kG*dG*dA*dA*dA*dT*dT*dG*dT*d[5mC]*kT*e[5mC]*kA*eT*kG) [Compound 1198810]”: the “YAP1 (% UT)” value is reported as 50 % UT.

Consider “1198826 (kA*kA*d[5mC]*dA*d[5mC]*dT*dG*dA*dG*dG*dT*kA*eT*kA*eA*k[5mC]; antisense) [Compound 1198826]”, for which the “YAP1 (% UT)” value is listed as 64 % UT.

With “1198823 (kG*kG*dT*dA*dT*dA*dA*d[5mC]*dT*dG*dG*kG*e[5mC]*kA*eA*kA; antisense) [Compound 1198823]”, the “YAP1 (% UT)” value is 65 % UT.

The same data set, now with this note: Table 48; Yap1 mRNA level relative to untreated control; modified oligonucleotides targeting SEQ ID NO.: 1 and 2.
With “1198315 (kT*kT*kA*dA*dG*d[5mC]*dA*d[5mC]*dT*dT*dT*dT*kA*e[5mC]*kA*eT; antisense) [Compound 1198315]”, the “YAP1 (% UT)” value turned out to be 85 % UT.

On to “1198326 (kT*kT*kA*dG*dG*dA*dT*dG*d[5mC]*dA*dT*dG*kG*eT*kT*eT; antisense) [Compound 1198326]”, for which the “YAP1 (% UT)” value turned out to be 84 % UT.

Consider “1097247 (antisense kT*kA*kA*dA*dG*dT*dG*dT*dA*dT*dG*dT*d[5mC]*kA*kG*kA) [Compound 1097247]”, for which the “YAP1 (% UT)” value came out at 9 % UT.

Still in this data set, the particulars now being: Table 49; Yap1 mRNA level relative to untreated control; modified oligonucleotides targeting SEQ ID NO.: 1 and 2.
Take “1198356 (kT*kA*kA*dA*dG*dT*dG*dT*dA*dT*dG*dT*k[5mC]*eA*kG*eA; antisense) [Compound 1198356]”: the “YAP1 (% UT)” value was determined as 5 % UT.

“1198550 (antisense kA*kT*kA*dT*dG*dG*dA*dA*dA*dT*dT*dG*kT*k[5mC]*kT*e[5mC]) [Compound 1198550]”: the “YAP1 (% UT)” value is on record as 17 % UT.

In the case of “1198369 (kT*kT*kA*dG*dA*d[5mC]*dT*dA*dA*dG*dT*dA*kA*eG*kG*eT; antisense) [Compound 1198369]”, the “YAP1 (% UT)” value was 51 % UT.

For the substance “1198365 (k[5mC]*kT*kA*dA*dG*dT*dA*dA*dG*dG*dT*dT*kT*e[5mC]*k[5mC]*e[5mC]; antisense) [Compound 1198365]”, the “YAP1 (% UT)” value is given as 13 % UT.

Staying with this data set, now noted: Table 50; Yap1 mRNA remaining as percent of untreated control (UT), SNU-449 cells, single dose.
As for “1198626 (kA*kG*kA*d[5mC]*dT*dA*dA*dG*dT*dA*dA*dG*kG*kT*kT*eT; antisense) [Compound 1198626]”, the “YAP1 (% UT)” value is listed as 99 % UT.

As to “1198605 (antisense kG*kT*kA*dA*dT*dA*dT*dT*dG*d[5mC]*dA*dA*kT*k[5mC]*kT*eG) [Compound 1198605]”, the “YAP1 (% UT)” value turned out to be 7 % UT.

Consider “1198614 (antisense kT*kA*kA*dA*dG*dT*dG*dT*dA*dT*dG*dT*k[5mC]*kA*kG*eA) [Compound 1198614]”, for which the “YAP1 (% UT)” value amounted to 4 % UT.

Staying with this data set, now noted: Table 51; Yap1 mRNA remaining as percent of untreated control (UT), SNU-449 cells, single dose.
For the substance “1197301 (AGATUTAGGATGCATG; chemistry not fully specified) [Compound 1197301]”, the “YAP1 (% UT)” value turned out to be 71 % UT.

Regarding “1197269 (kT*kA*kA*dA*mG*dT*dG*dT*dA*dT*dG*dT*d[5mC]*kA*kG*kA) [Compound 1197269]”, the “YAP1 (% UT)” value came to 3 % UT.

On to “1197315 (kA*kA*k[5mC]*dT*mU*dT*dA*dA*dA*dG*dT*dG*dT*kA*kT*kG; antisense) [Compound 1197315]”, for which the “YAP1 (% UT)” value is recorded as 116 % UT.

Turning to “1197279 (kT*kT*kA*dG*mA*d[5mC]*dT*dA*dA*dG*dT*dA*dA*kG*kG*kT) [Compound 1197279]”, the “YAP1 (% UT)” value amounted to 54 % UT.

In the case of “1200793 (kA*kG*kT*dA*dT*mG*dT*dG*dG*d[5mC]*dA*dA*dT*kA*kA*kT; antisense) [Compound 1200793]”, the “YAP1 (% UT)” value worked out at 31 % UT.

Regarding “1197262 (A_{ks}A_{ks}^{m}C_{ks}T_{ds}C_{ys}T_{ds}T_{ds}A_{ds}T_{ds}A_{ds}T_{ds}G_{ds}G_{ds}T_{ks}T_{ks}T_{k}; as printed in the source, key not given here) [Compound 1197262]”, the “YAP1 (% UT)” value was 89 % UT.

Take “1197261 (kT*k[5mC]*kT*dT*mA*dT*dA*dT*dG*dG*dT*dT*dT*kT*kG*kT) [Compound 1197261]”: the “YAP1 (% UT)” value stood at 91 % UT.

Still in this data set, the particulars now being: Table 52; Yap1 mRNA, modified oligonucleotides targeting SEQ ID NO: 1 and 2.
As to “1200788 (kG*kA*kA*dA*dT*mU*dG*dT*d[5mC]*dT*d[5mC]*dA*dT*kG*k[5mC]*k[5mC]; antisense) [Compound 1200788]”, the “YAP1 (% UT)” value is 19 % UT.

In the case of “1200847 (kA*kT*kT*dG*d[5mC]*mA*dA*dT*d[5mC]*dT*dG*dT*d[5mC]*kT*kG*kA; antisense) [Compound 1200847]”, the “YAP1 (% UT)” value worked out at 54 % UT.

Take “1200848 (kA*kT*kA*dT*dT*mG*d[5mC]*dA*dA*dT*d[5mC]*dT*dG*kT*k[5mC]*kT; antisense) [Compound 1200848]”: the “YAP1 (% UT)” value is 58 % UT.

Staying with this data set, now noted: Yap1 mRNA, percent of untreated control; modified oligonucleotides targeting SEQ ID NO: 1 and 2; Table 47.
“1197184 (antisense kA*kG*k[5mC]*dA*d[5mC]*dT*dT*dT*dT*dA*d[5mC]*dA*dT*kT*kA*kG) [Compound 1197184]”: the “YAP1 (% UT)” value came to 20 % UT.

“1197224 (antisense kA*k[5mC]*kT*dA*dA*dG*dT*dA*dA*dG*dG*dT*dT*kT*k[5mC]*k[5mC]) [Compound 1197224]”: the “YAP1 (% UT)” value stood at 24 % UT.

With “1198858 (k[5mC]*kT*d[5mC]*dT*dT*dA*dT*dA*dT*dG*dG*kT*eT*kT*eT*kG) [Compound 1198858]”, the “YAP1 (% UT)” value amounted to 29 % UT.
